Assay results reported in publication PMC6114103, “17-DMAG inhibits the multiplication of several Babesia species and Theileria equi on in vitro cultures, and Babesia microti in mice” (International Journal for Parasitology: Drugs and Drug …, 2018).

Columns and labels:
T. equi (USDA strain) = test: in vitro multiplication inhibition assay (SYBR Green I fluorescence, 96 h), single drugs and two-drug combinations; assay type: cell-based, Theileria equi; conditions: for IC50: Theileria equi, T. equi, 96 h, triplicate, mean ± SD, read-out: IC50 on in vitro culture of parasites; for Selectivity index MDBK: ratio IC50 MDBK to IC50 T. equi; for Selectivity index NIH/3T3: ratio IC50 NIH/3T3 to IC50 T. equi
Experimental: (§1) Babesia parasite cultures were maintained using a microaerophilic stationary-phase culture system ([Levy and Ristic, 1980]; [Avarzed et al., 1997]; [Igarashi et al., 1998]). Briefly, bovine Babesia parasites were grown in bovine red blood cells (RBC) in the specific complete medium for each species. The medium for B. bovis (Texas strain) contained GIT medium supplemented with 10% bovine serum, while the medium for B. bigemina (Argentina strain) and B. divergens (Germany strain) was Medium 199 and RPMI 1640 medium, respectively, supplemented with 40% bovine serum ([Rizk et al., 2016]). B. caballi (USDA strain) was grown using equine RBC in GIT medium supplemented with 10% equine serum. T. equi (USDA strain) was grown in equine RBC in M199 medium supplemented with 40% equine serum and hypoxanthine (MP Biomedicals, USA) at a final concentration of 13.6 μg/ml. All of the media included 60 U/ml penicillin G, 60 μg/ml streptomycin, and 0.15 μg/ml amphotericin B (Sigma-Aldrich, USA). The cultures were incubated at 37 °C in a humidified chamber with an atmosphere of 5% CO2, 5% O2, and 90% N2.
(§2) The assays were conducted in accordance with the protocol described previously with modification ([Guswanto et al., 2014]). Briefly, the cultures of B. bovis, B. bigemina, B. divergens, B. caballi, and T. equi with a parasitemia of 8%, 3%, 10%, 4%, and 9%, respectively, were harvested and adjusted to 1% parasitemia with fresh RBC before the inhibition assay. The 60 inner wells of a 96-well plate were used in the assay, while the peripheral wells were filled with sterile distillate water to reduce evaporation during incubation. To each well in triplicate, 2.5 μl of infected RBC (5 μl for B. divergens, B. caballi, and T. equi) was added and mixed with a culture medium containing the drug to a total volume of 100 μl. The stock solution of 17-DMAG, DA, and AV was dissolved in a culture medium at various concentrations using two-fold dilution. A culture medium containing DMSO at a final concentration of 0.2% was added to the well with infected RBC as a positive control and to the well with uninfected RBC as a negative control. Furthermore, a drug combination assay was conducted in parallel with the single drug assay at the constant ratio in accordance with the Chou–Talalay method ([Chou, 2006]). In the same plate with a single drug inhibition assay, a two-drug combination (DA+17-DMAG, DA + AV, and 17-DMAG + AV) at concentrations of 0.25 x IC50, 0.5 x IC50, IC50, 2 x IC50, and 4 x IC50 was added to the well containing infected RBC in triplicate. The plate was incubated in a humidified incubator with 5% CO2, 5% O2, and 90% N2. After 96 h, 100 μl of a lysis buffer containing SYBR Green I was added to each well. The plate was wrapped with aluminum foil to avoid direct light exposure and incubated at room temperature. After incubation for 6 h, fluorescence values were measured using a fluorescence spectrophotometer (Fluoroskan Ascent, Thermo Fisher Scientific, USA) with the excitation and emission wavelength at 485 nm and 518 nm, respectively. The fluorescence data were subtracted from the negative control and used to calculate the IC50.
(§3) The IC50 of 17-DMAG, DA, and AV was calculated from the percentage of inhibition on the in vitro multiplication of all tested species using non-linear regression (curve fit), available in GraphPad Prism (GraphPad Software Inc., USA). Combination index (CI) values for the drug combination were calculated using CompuSyn software ([Chou, 2006]). Since the chemotherapy effect is preferable at the highest inhibition, the degree of synergism was determined as the weighted average of CI values using a formula ((1 x IC50) + (2 x IC75) + (3 x IC90) + (4 x IC95))/10 ([Chou, 2006]). The differences among groups regarding the parasitemia, hematology profiles, and body weight in the B. microti–infected mouse model were analyzed using Student's t-test, available in GraphPad Prism software.

[1] = test system: B. bigemina (Argentina strain); test: as above; assay type: cell-based, Babesia bigemina; conditions: for IC50: Babesia bigemina, B. bigemina, 96 h, triplicate, mean ± SD, read-out: IC50 on in vitro culture of parasites; for Selectivity index MDBK: ratio IC50 MDBK to IC50 B. bigemina; for Selectivity index NIH/3T3: ratio IC50 NIH/3T3 to IC50 B. bigemina
Experimental: as §1, §2, §3

B. bovis (Texas strain) = test: as above; assay type: cell-based, Babesia bovis; conditions: for IC50: Babesia bovis, in Bos taurus, B. bovis, 96 h, triplicate, mean ± SD, read-out: IC50 on in vitro culture of parasites; for Selectivity index MDBK: ratio IC50 MDBK to IC50 B. bovis; for Selectivity index NIH/3T3: ratio IC50 NIH/3T3 to IC50 B. bovis
Experimental: as §1, §2, §3

B. caballi (USDA strain) = test: as above; assay type: cell-based, Babesia caballi; conditions: for IC50: Babesia caballi, B. caballi, 96 h, triplicate, mean ± SD, read-out: IC50 on in vitro culture of parasites; for Selectivity index MDBK: ratio IC50 MDBK to IC50 B. caballi; for Selectivity index NIH/3T3: ratio IC50 NIH/3T3 to IC50 B. caballi
Experimental: as §1, §2, §3

[2] = test system: B. divergens (Germany strain); test: as above; assay type: cell-based, Babesia divergens; conditions: for IC50: Babesia divergens, B. divergens, 96 h, triplicate, mean ± SD, read-out: IC50 on in vitro culture of parasites; for Selectivity index MDBK: ratio IC50 MDBK to IC50 B. divergens; for Selectivity index NIH/3T3: ratio IC50 NIH/3T3 to IC50 B. divergens
Experimental: as §1, §2, §3

NIH/3T3 cells = test: cytotoxicity (drug-exposure viability) assay, CCK-8; assay type: cell-based, mouse; conditions: for IC50: Mus musculus, NIH3T3, NIH/3T3, 24 h exposure, CCK-8, read-out: IC50 on cell line NIH/3T3
Experimental: (§4) Each medium was supplemented with 10% fetal bovine serum, 0.5% penicillin/streptomycin (Gibco, Life Technologies, USA), and an additional 1% glutamine. The medium was changed every 3–4 days and incubated until approximately 80% confluent. The cells were free from mycoplasma contamination after being checked by staining with DAPI (Sigma-Aldrich, USA). The detachment of cells from the culture flask was done using TrypLE™ Express (Gibco, Life Technologies, USA) after washing two times with Dulbecco's phosphate-buffered saline (DPBS). Subsequently, the counting of viable cells was carried out using a Neubauer improved C-Chip (NanoEntek Inc., Korea) after staining with 0.4% trypan blue solution. The drug-exposure viability assay was performed in accordance with the recommendation of the Cell Counting Kit-8 (CCK-8, Dojindo, Japan). Briefly, the assay was carried out using a 96-well plate at 37 °C in a humidified incubator with 5% CO2. One hundred microliters of cells at a density of 5 × 10^4 cells/ml was seeded per well and allowed to attach to the plate for 24 h. […] The exposure of drugs was carried out for 24 h, followed by the addition of 10 μl of CCK-8. The plate was further incubated for 3 h, and the absorbance was measured at 450 nm using a microplate reader.

MDBK cells = test: as above; assay type: cell-based, bovine; conditions: for IC50: Bos taurus, MDBK, 24 h exposure, CCK-8, read-out: IC50 on cell line MDBK
Experimental: as §4

[3] = at a concentration of 40 μM, separate assay

SMILES | IC50 (T. equi (USDA strain)) [µM] | Selectivity index MDBK (T. equi (USDA strain)) | Selectivity index NIH/3T3 (T. equi (USDA strain)) | IC50 [1] [µM] | Selectivity index MDBK [1] | Selectivity index NIH/3T3 [1] | IC50 (B. bovis (Texas strain)) [µM] | Selectivity index MDBK (B. bovis (Texas strain)) | Selectivity index NIH/3T3 (B. bovis (Texas strain)) | IC50 (B. caballi (USDA strain)) [µM] | Selectivity index MDBK (B. caballi (USDA strain)) | Selectivity index NIH/3T3 (B. caballi (USDA strain)) | IC50 [2] [µM] | Selectivity index MDBK [2] | Selectivity index NIH/3T3 [2] | IC50 (NIH/3T3 cells) [µM] | IC50 (MDBK cells) [µM] | inhibition on NIH/3T3 cell viability (NIH/3T3 cells; [3]) | inhibition on MDBK cell viability (MDBK cells; [3])
CO[C@H]1/C=C\C=C(/C)C(=O)NC2=CC(=O)C(NCCN(C)C)=C(C[C@@H](C)C[C@H](OC)[C@H](O)[C@@H](C)/C=C(\C)[C@@H]1OC(N)=O)C2=O [17-DMAG, 17-dimethylaminoethylamino-17-demethoxygeldanamycin] | 0.308 ± 0.0072 | 29 | 50 | 0.0624 ± 0.0019 | 141 | 248 | 0.0776 ± 0.0029 | 113 | 200 | 0.0885 ± 0.0096 | 99 | 175 | 0.184 ± 0.0032 | 48 | 84 | 15.5 ± 4 | 8.8 ± 2 | – | –
O=C1C(O)=C([C@H]2CC[C@H](c3ccc(Cl)cc3)CC2)C(=O)c2ccccc21 [AV, atovaquone] | 0.095 ± 0.065 | >421 | >421 | 0.706 ± 0.0387 | >57 | >57 | 0.0397 ± 0.0024 | >1008 | >1008 | 0.102 ± 0.0141 | >393 | >393 | 0.0134 ± 0.0014 | >2985 | >2985 | > 40 | > 40 | did not show any inhibition | did not show any inhibition
